Results from US20110269797A1, “ANLN PROTEIN AS AN ENDOCRINE TREATMENT PREDICTIVE FACTOR” (ATLAS ANTIBODIES AB, priority 2008, published 2011).
“Also recorded” adds a separate entry of the source.

Legend:
primary breast cancer = test: Consecutive cohort TMA (Cohort I), survival analysis of tamoxifen-treated ER+ subjects by ANLN protein level; format: in vivo, human; conditions: ER+ subjects given adjuvant tamoxifen; cut off nf 1%; FIG. 6, p=0.018
Description: Archival formalin-fixed paraffin-embedded tissue from 498 patients diagnosed with primary breast cancer between 1988 and 1992 was collected from the Department of Pathology, Malmo University Hospital, Sweden. The median age of patients was 65 (range 27-96) years and median follow-up time was 128 months (0-207). Information regarding the date of death was obtained from the regional cause-of-death registries for all patients. Ethical permission was obtained from the Local Ethics Committee of Lund University.
All 498 cases of breast cancer were histopathologically reevaluated on slides stained with hematoxylin and eosin. TMA:s were constructed by sampling 2×1.0 mm cores per case from areas representative of invasive cancer, using a manual arraying device (ATA-27, Beecher Inc, Sun Prairie, Wis., USA). The TMA:s were prepared and automated IHC was performed as described in section 3 above, using the ANLN protein antibody prepared as described in section 2 above. IHC staining of ER had been performed previously. […]
For statistical analyses, the nucleic fraction (nf) level was evaluated, in line with what is described in Examples, Section 3 above. The nuclear fraction was subjectively evaluated in accordance to standards used in clinical histo-pathological diagnostics and outcome was classified as ≦1%, 2-25%, 26-75% or >75%. […]

[1] = tested on: stage II primary breast carcinoma; test: Randomized premenopausal tamoxifen trial, Cohort II TMA, Kaplan-Meier survival analysis by ANLN protein level; format: in vivo, human
Description: Median age at diagnosis was 45 (25-57) years. Median follow-up was 13.9 years and less than 2% of the patients had received adjuvant chemotherapy. The study design is described in detail elsewhere (Rydén L et al, Eur J Cancer, 2005, 41(2): 256-64). Ethical permission was obtained from the Local Ethics Committees at Lund and Linkoping Universities.
All cases had been histopathologically re-evaluated on hematoxylin and eosin stained slides. TMA:s were constructed by sampling 2×0.6 mm cores per case from areas representative of invasive cancer, using an automated arraying device (ATA-27, Beecher Inc, Sun Prairie, Wis., USA). The TMA:s were prepared and automated IHC was performed as described in section 3 above, using the ANLN protein antibody prepared as described in section 2 above. IHC staining of ER had been performed previously. In line with current clinical praxis, a cut-off at 10% positive nuclei was used to define hormone receptor positivity.
For statistical analyses, categories were based on nuclear fraction (nf). nf was evaluated as in Examples, section 4, above. As with “the fraction of stained cells” in Examples, Section 3 above, nf was classified as ≦1%, 2-25%, 26-75% or >75%. For this purpose the 2-25% group were split into two groups namely 2-10% and >10-25%. Based on the survival trends for all different strata, dichotomized variables were constructed for further statistical analyses. […] Subsequently, groups denoted “high” or “low” were established based on ANLN protein expression. In a first analysis, the “high” group represented a nuclear fraction (nf) of >1%, and the “low” group a nuclear fraction≦1%. In a second analysis, the “high” group represented a nuclear fraction (nf) of >10%, and the “low” group a nuclear fraction≦10%.
In a third analysis, the “high” group represented a nuclear fraction (nf) of 26%, and the “low” group a nuclear fraction≦25%. This classification of samples was used for OS, RFS and BOSS analysis according to the Kaplan-Meier estimator, and the log-rank test was used to compare survival in different strata. All statistical tests were two-sided, and p-values of <[…] were considered significant. All calculations were made with the statistical package SPSS 16.0 (SPSS Inc. Ill., USA).

breast cancer = conditions: cited from earlier work
ERα+/PR− tumors = conditions: follow-up period of 6 years, Dowsett 2005; cited from earlier work

Compound | probability of recurrence free survival, ANLN protein low versus high subjects treated with tamoxifen (primary breast cancer) | benefit from tamoxifen treatment (RFS, BCSS, OS) ([1]; ER positive ANLN protein low patients (nf≦10%), TAM vs ctrl, FIGS. 14a, 15a, 16a) | impact of tamoxifen treatment on survival (RFS, BCSS, OS) ([1]; ER positive patients with high ANLN protein level (nf>10%), TAM vs ctrl, FIGS. 14b, 15b, 16b) | RFS of ANLN protein low versus ANLN protein high patients treated with tamoxifen ([1]; adjuvant tamoxifen 2 years, cut off 1% and 10%, FIG. 8) | effect of tamoxifen treatment on RFS ([1]; ductal carcinoma subgroup, ANLN protein low (nf≦10%), TAM vs ctrl, FIG. 20a) | impact of tamoxifen treatment on RFS outcome ([1]; ductal carcinoma subgroup, high ANLN protein level (nf>10%), TAM vs ctrl, FIG. 20b) | impact of tamoxifen treatment on RFS outcome ([1]; subjects with high ANLN protein level (nf>10%), TAM 2 years vs ctrl, FIG. 11) | ERα positive patients that do not respond to tamoxifen treatment (breast cancer; Riggins 2007, Gruvberger-Saal 2007) | breast cancer mortality (breast cancer; five years adjuvant treatment after primary surgery, ER positive tumors, irrespective of lymph node status, EBCTCG 1998) | recurrence rate compared to patients treated with tamoxifen (ERα+/PR− tumors)
CC/C(=C(\c1ccccc1)c1ccc(OCCN(C)C)cc1)c1ccccc1 [tamoxifen] | significantly better | particularly beneficial; also recorded: at least slightly, benefit | limited or no impact | significantly better | effective | no positive impact on the outcome | no positive impact on the outcome | 30-40% | reduces | –
CC(C)(C#N)c1cc(Cn2cncn2)cc(C(C)(C)C#N)c1 [anastrozole] | – | – | – | – | – | – | – | – | – | halved
